From patent US11040028B2, “Penicinotam derivative, preparation method and use thereof” (OCEAN UNIVERSITY OF CHINA, priority 2017, dated 2021)
Like-named read-outs stand apart in the source and are kept apart here.

Experiments:
Format in all cases: cell-based
[1] = system: BHK-21 cells; assay: Anti-fibrosis activity test: inhibition of BHK-21 cell proliferation (CCK-8); details: Mesocricetus auratus, BHK-21, 48 h, CCK-8, 48 hours after administration
How it was run: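 Each concentration was tested in triplicate on adhered BHK-21 cells for 48 h, with pirfenidone as reference. A 2 h CCK-8 incubation preceded absorbance reading at 450 nm, and IC50 was obtained from percent inhibition versus blank.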

[2] = system: human lung fibroblasts HFL1; assay: Anti-fibrosis activity test: inhibition of proliferation of human lung fibroblasts HFL1 (CCK-8); details: Homo sapiens, HFL1, 48 h, human lung fibroblasts HFL1, CCK-8, 48 hours
How it was run: (§1)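 Proliferation read by CCK-8 (2 h, A450) after 48 h compound treatment of cells plated at 2×10^4 cells/mL and allowed 24 h attachment, triplicate per concentration. Inhibition rate derived from absorbance relative to untreated blank, with IC50 fitted; pirfenidone as positive control.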

[3] = system: human hepatic stellate cells LX-2; assay: Anti-fibrosis activity test: inhibition of proliferation of human hepatic stellate cells LX-2 (CCK-8); details: Homo sapiens, 48 h, human hepatic stellate cells LX-2, CCK-8, 48 hours
How it was run: as §1

[4] = system: human fibrosarcoma cells HT-1080; assay: Anti-fibrosis activity test: inhibition of proliferation of human fibrosarcoma cells HT-1080 (CCK-8); details: human fibrosarcoma cells HT-1080, CCK-8, 48 hours
How it was run: as §1

[5] = system: human dermal fibroblasts CCC-ESF-1; assay: Anti-fibrosis activity test: inhibition of proliferation of human dermal fibroblasts CCC-ESF-1 (CCK-8); details: Fibroblast; human dermal fibroblasts CCC-ESF-1, CCK-8, 48 hours
How it was run: as §1

[6] = system: human embryonic lung fibroblast IMR-90; assay: Anti-fibrosis activity test: inhibition of proliferation of human embryonic lung fibroblast IMR-90 (CCK-8); details: human embryonic lung fibroblast IMR-90, CCK-8, 48 hours
How it was run: as §1

[7] = system: cardiac fibroblast RAT-iCell-C002; assay: Anti-fibrosis activity test: inhibition of proliferation of cardiac fibroblast RAT-iCell-C002 (CCK-8); details: Cardiac fibroblast, 48 h, cardiac fibroblast RAT-iCell-C002, CCK-8, 48 hours
How it was run: as §1

[8] = system: mouse macrophages (RAW264.7); assay: Lipopolysaccharide-induced NO secretion in macrophages (Griess); details: RAW264.7, LPS 1 μg/ml, a/b isomers given as first/second symbol, read-out: IC50 (μM), inhibition of lipopolysaccharide-induced NO secretion in macrophages
How it was run: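 Percent inhibition of NO release was measured by Griess absorbance at 548 nm in supernatants. Cells were mouse RAW264.7 macrophages in 10% FBS DMEM, treated with graded compound concentrations and activated by LPS (1 μg/ml) for 24 h.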

SMILES | IC50 [1] | IC50 [2] | IC50 [3] | IC50 ([4]; Homo sapiens, HT-1080, 48 h) | IC50 [5] | IC50 [6] | IC50 [7] | IC50 ([8]; Mus musculus, RAW264.7, 24 h) | IC50 [4] | IC50 ([8]; 24 hours)
O=C1c2c(nc3ccc(F)cc3c2O)-c2cccn21 [Compound 156b, 7-fluoro-9-hydroxy-10H-pyrrolizino[1,2-b]quinolin-10-one] | 0.05 to 5 mM | < 0.05 mM | 0.05 to 5 mM | 0.05 to 5 mM | 0.05 to 5 mM | 0.05 to 5 mM | 0.05 to 5 mM | 0.1 to 1 µM |  | 
CCOc1c2c(nc3cc(N4CCNCC4)c(F)cc13)-c1cccn1C2=O [Compound 329b, 9-ethoxy-7-fluoro-6-(piperazin-1-yl)-10H-pyrrolizino[1,2-b]quinolin-10-one] | 0.05 to 5 mM | 0.05 to 5 mM | 0.05 to 5 mM | 0.05 to 5 mM | 0.05 to 5 mM | 0.05 to 5 mM | < 0.05 mM | 1 to 10 µM |  | 
O=C1c2c(nc3c(F)c(N4CCNCC4)ccc3c2OCc2ccc(F)cc2)-c2cccn21 [Compound 485b, 5-fluoro-9-((4-fluorobenzyl)oxy)-6-(piperazin-1-yl)-10H-pyrrolizino[1,2-b]quinolin-10-one] | 0.05 to 5 mM | 0.05 to 5 mM | 0.05 to 5 mM | 0.05 to 5 mM | 0.05 to 5 mM | 0.05 to 5 mM | 0.05 to 5 mM | 1 to 10 µM |  | 
CC(C)=CCOc1c2c(nc3cc(N4CCNCC4)c(F)cc13)-c1cccn1C2=O [Compound 354b, 7-fluoro-9-((3-methylbut-2-en-1-yl)oxy)-6-(piperazin-1-yl)-10H-pyrrolizino[1,2-b]quinolin-10-one] | 0.05 to 5 mM | 0.05 to 5 mM | 5 to 20 mM | 0.05 to 5 mM | 0.05 to 5 mM | 0.05 to 5 mM | 0.05 to 5 mM | 1 to 10 µM |  | 
O=C1c2c(nc3cccc(F)c3c2OCc2cccc(F)c2)-c2cccn21 [Compound 475b, 8-fluoro-9-((3-fluorobenzyl)oxy)-10H-pyrrolizino[1,2-b]quinolin-10-one] | 0.05 to 5 mM | 0.05 to 5 mM | 0.05 to 5 mM | < 0.05 mM | 0.05 to 5 mM | 0.05 to 5 mM | 0.05 to 5 mM | 1 to 10 µM |  | 
O=C1c2c(nc3c(C(F)(F)F)c(N4CCNCC4)ccc3c2OCc2ccc(Cl)cc2)-c2cccn21 [Compound 483b, 9-((4-chlorobenzyl)oxy)-6-(piperazin-1-yl)-5-(trifluoromethyl)-10H-pyrrolizino[1,2-b]quinolin-10-one] | 0.05 to 5 mM | 0.05 to 5 mM | 0.05 to 5 mM |  | 0.05 to 5 mM | 0.05 to 5 mM | 0.05 to 5 mM |  | 5 to 20 mM | 1 to 10 µM
O=C1c2c(nc3cc(F)ccc3c2OCc2cccc(F)c2)-c2cccn21 [Compound 491b, 6-fluoro-9-((3-fluorobenzyl)oxy)-10H-pyrrolizino[1,2-b]quinolin-10-one] | 0.05 to 5 mM | 0.05 to 5 mM | 0.05 to 5 mM | 0.05 to 5 mM | 0.05 to 5 mM | 0.05 to 5 mM | 0.05 to 5 mM | 1 to 10 µM |  | 
O=C1c2c(nc3cccc(C(F)(F)F)c3c2OCc2ccc(Cl)cc2)-c2cccn21 [Compound 465b, 9-((4-chlorobenzyl)oxy)-8-(trifluoromethyl)-10H-pyrrolizino[1,2-b]quinolin-10-one] | 0.05 to 5 mM | 0.05 to 5 mM | 0.05 to 5 mM | 0.05 to 5 mM | 0.05 to 5 mM | 0.05 to 5 mM | 0.05 to 5 mM | 10 to 50 µM |  | 
O=C1c2c(nc3cc(Cl)ccc3c2OCc2ccccc2F)-c2cccn21 [Compound 504b, 6-chloro-9-((2-fluorobenzyl)oxy)-10H-pyrrolizino[1,2-b]quinolin-10-one] | 0.05 to 5 mM | 0.05 to 5 mM | 0.05 to 5 mM | 0.05 to 5 mM | 0.05 to 5 mM | 0.05 to 5 mM | 0.05 to 5 mM | 1 to 10 µM |  | 
